PubChem BioAssay (NCI)
Several values for one entry are separate records, joined by “and”; a condition that tells them apart may be missing. Equal values may be shown once.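 Tested at 5 concentrations; 48 h exposure; 96-well plates; endpoints linearly interpolated, else capped at highest concentration. GI50 = concentration required for 50% inhibition of growth. The concentration for full growth arrest is given as TGI.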 Where a SMILES comes first, the peptide text is derived from it. [ ]: non-standard residue; d: D form. The star is where a group is joined. ξ: configuration not given here. X3 = COc1ccc(C(N*)c2ccc(OC)cc2)cc1; NMeF = CN[C@@H](Cc1ccccc1)C(=O)O; NMeD = CN[C@@H](CC(=O)O)C(=O)O; NMeV = CN[C@H](C(=O)O)C(C)C; ξNMeV = CNC(C(=O)O)C(C)C; Boc = CC(C)(C)OC(=O)*; ξNMeA = CNC(C)C(=O)O; ξV = CC(C)C(N)C(=O)O

How the values were obtained:
Test in all cases: NCI anticancer screen, dose series, 48 h
ACHN renal = tested on: ACHN renal
SK-MEL-2 melanoma = tested on: SK-MEL-2 melanoma
RPMI-8226 leukemia = tested on: RPMI-8226 leukemia
IGROV1 ovarian = tested on: IGROV1 ovarian
SF-268 CNS = tested on: SF-268 CNS
SF-539 CNS = tested on: SF-539 CNS
SK-OV-3 ovarian = tested on: SK-OV-3 ovarian
A498 renal = tested on: A498 renal
EKVX NSCLC = tested on: EKVX NSCLC
SW-620 colon = tested on: SW-620 colon

Compound	TGI (ACHN renal)	TGI (SK-MEL-2 melanoma)	TGI (RPMI-8226 leukemia)	TGI (IGROV1 ovarian)	TGI (SF-268 CNS)	TGI (SF-539 CNS)	TGI (SK-OV-3 ovarian)	TGI (A498 renal)	TGI (EKVX NSCLC)	TGI (SW-620 colon)	GI50 (ACHN renal)	GI50 (SK-MEL-2 melanoma)	GI50 (RPMI-8226 leukemia)	GI50 (IGROV1 ovarian)	GI50 (SF-268 CNS)	GI50 (SF-539 CNS)	GI50 (SK-OV-3 ovarian)	GI50 (A498 renal)	GI50 (EKVX NSCLC)	GI50 (SW-620 colon)
CC(=O)CC(OC(C)=O)C1=CCC2C(CC1C)OC(=O)C2C (stereo not drawn)	> 100 µM	> 100 µM	> 100 µM	> 100 µM	> 100 µM	> 100 µM	> 100 µM	> 100 µM	> 100 µM	> 100 µM	–	–	–	–	–	–	–	–	–	–
O=C(/C(=C/c1ccc([N+](=O)[O-])cc1)SCc1ccccc1)c1ccc(Cl)cc1	4.16 µM	32.5 µM	5.03 µM	11.6 µM	13.1 µM	8.2 µM	36.4 µM	28.2 µM	20.2 µM	4.15 µM	1.97 µM	15.3 µM	1.78 µM	2.86 µM	3.09 µM	2.64 µM	14.4 µM	13.2 µM	6.77 µM	1.83 µM
CC(=O)NNc1nc(C)c(C(=O)/C=C/c2ccc(NC(C)=O)cc2)s1	> 100 µM	> 100 µM	> 100 µM	> 100 µM	> 100 µM	> 100 µM	> 100 µM	> 100 µM	> 100 µM	> 100 µM	–	–	–	–	–	–	–	–	–	–
C[C@]12CCC3c4ccc(O)cc4CCC3C1CC[C@@]2(O)CNC(=O)/C=C/c1ccc(O)c(O)c1 (stereo partly drawn)	6.14 µM	32.2 µM	50.7 µM	7.26 µM	> 100 µM	18 µM	34.5 µM	29.8 µM	29.8 µM	27.2 µM	2.41 µM	13.5 µM	8.56 µM	2.47 µM	9.45 µM	5.1 µM	16.7 µM	14.9 µM	9.97 µM	9.36 µM
COc1ccc(C(NC(=O)C[C@@H](C(=O)N(C)C(C)C(=O)O)N(C)C(=O)[C@@H]2CCCN2C(=O)[C@H](C(C)C)N(C)C(=O)C(C(C)C)N(C)C(=O)[C@H](Cc2ccccc2)N(C)C(=O)C(NC(=O)OC(C)(C)C)C(C)C)c2ccc(OC)cc2)cc1 (stereo partly drawn) (Boc-[ξV][NMeF][ξNMeV][NMeV]P[NMeD](X3)[ξNMeA]-OH)	37.5 µM and 22.5 µM	16.8 µM and 28.9 µM	19.5 µM	27.8 µM and 28 µM	31.9 µM and 28.6 µM	17.9 µM and 39.8 µM	> 37.5 µM and 33.3 µM	> 37.5 µM and 35.7 µM	37.5 µM and 39.6 µM	16.5 µM and 32.3 µM	10.6 µM	14.5 µM	–	14.7 µM	15.1 µM	22.5 µM	19.2 µM	20.1 µM	21.6 µM	18.3 µM
O=C(O)c1ccc2c(c1C(=O)O)C(=O)OC2(c1ccc(O)cc1)c1ccc(O)cc1	> 100 µM	> 100 µM	> 100 µM	> 100 µM	> 100 µM	> 100 µM	> 100 µM	> 100 µM	> 100 µM	> 100 µM	–	–	–	–	–	–	–	–	–	–
COc1ccc(/C=N/NC(=O)c2cccc3cc[nH]c23)cc1O	> 100 µM	> 100 µM	24.8 µM	> 100 µM	> 100 µM	> 100 µM	> 100 µM	86.1 µM	> 100 µM	> 100 µM	4.19 µM	18.9 µM	3.38 µM	7.91 µM	4.01 µM	1.85 µM	9.87 µM	4.05 µM	11 µM	0.65 µM
N#Cc1c[nH]n2c(N=Nc3ccc(Cl)cc3)c(O)nc12	62 µM	> 100 µM	95.3 µM	> 100 µM	77.4 µM	54.1 µM	> 100 µM	96.3 µM	81.1 µM	> 100 µM	24.7 µM	52 µM	25.7 µM	50.5 µM	20.6 µM	26.9 µM	37 µM	44.2 µM	31.7 µM	47.9 µM
CN(C)c1cc(NN=C(c2ccc(O)cc2)c2ccc(O)cc2)c([N+](=O)[O-])cc1[N+](=O)[O-]	13.3 µM	22.9 µM	27.2 µM	24.8 µM	15.9 µM	24.1 µM	36.6 µM	21.6 µM	18.1 µM	24.2 µM	2.36 µM	7.45 µM	3.34 µM	7.16 µM	3.88 µM	11.8 µM	14.4 µM	8.18 µM	5.49 µM	11.4 µM
CC1(COc2ccc3c(c2)ncn3-c2ccc3cccc(N4CCC(N)CC4)c3n2)COC1	> 10 µM	11.9 µM and 6.85 µM	5.29 µM and 5.21 µM	14 µM and > 10 µM	9.15 µM and > 10 µM	2.65 µM and 2.59 µM	29.2 µM and > 10 µM	10.7 µM and 4.27 µM	13.2 µM and > 10 µM	11 µM and > 10 µM	2.61 µM and 2.24 µM	4.96 µM and 3.29 µM	2.08 µM and 1.88 µM	4.07 µM and 2.57 µM	2.74 µM and 2.85 µM	1.26 µM and 1.01 µM	15.5 µM and > 10 µM	5.01 µM and 2.03 µM	3.02 µM and 3.28 µM	3.09 µM and 2.52 µM
O=S(=O)(c1ccccc1)N1CCN(S(=O)(=O)c2ccccc2)c2ccccc21	> 100 µM	> 100 µM	> 100 µM	> 100 µM	> 100 µM	> 100 µM	> 100 µM	> 100 µM	80.1 µM	> 100 µM	–	–	–	–	–	–	–	–	–	–
O=C(/C=C/c1ccc(O)cc1)c1ccc(O)cc1	> 74.3 µM	50 µM	69 µM	> 100 µM	71.8 µM	54.2 µM	> 100 µM	65.1 µM	97.1 µM	57.9 µM	–	–	–	–	–	–	–	–	–	–
CCOC(=O)C1=C(C)N(c2ccc(F)cc2F)[C@]2(C#N)C(O)=C(Cl)C(Cl)=C(O)[C@]12C#N	> 100 µM	> 100 µM	> 100 µM	> 100 µM	> 100 µM	> 100 µM	> 100 µM	> 100 µM	> 100 µM	> 100 µM	> 100 µM	> 100 µM	27.1 µM	> 100 µM	> 100 µM	> 100 µM	> 100 µM	> 100 µM	> 100 µM	> 100 µM
Cc1ccc(Oc2ccc(C)cc2N)cc1	–	> 100 µM	> 100 µM	> 100 µM	> 100 µM	> 100 µM	> 100 µM	> 100 µM	> 100 µM	> 100 µM	–	–	–	–	–	–	–	–	–	–
